We go through four molecules from patent US6713492B1, “N-acyloxylated cycloalkyl compounds, composition containing the same and methods of use therefor” (Daiichi Radioisotope Laboratories, Ltd., priority 1998, dated 2004).

Molecules are shown by their SMILES.

In one series the test system is Esterase, Porcine Liver. As to the kind of experiment: Test for measuring enzyme activity: hydrolysis of the sample by esterase, followed by ESR. It counts as in vitro ADME. Particulars: 1 mM sample solution, esterase 0.2-200 U/ml in phosphate buffered saline pH7.4, one minute, oxidised to nitroxide. The method, then: Capability of enzyme (esterase) activity determination by ESR using 1-acetoxy-3-carbamoyl-2,2,5,5-tetramethylpyrrolidine was examined. Esterase (3360 U/ml, manufactured by Sigma Co., Esterase, Porcine Liver) was diluted with a phosphate buffered saline solution (pH7.4, 67 mM) to concentrations of 0.2, 2, 20, and 200 U/ml. 100 μl of each diluent was added to 100 μl of a 1 mM sample solution, and allowed to stand for one minute. Specifically, the sample was converted into a hydroxylamine derivative using the esterase. Next, 10 μl of 10 mM sodium periodide phosphate buffered saline solution was added. Specifically, the hydroxylamine derivative produced was converted into a nitroxide derivative which can be measured by ESR. Finally, this solution is suctioned into a flat cell (manufactured by Labotech Co.) to measure ESR spectrum using “JES-REIX” manufactured by JEOL Ltd after one minute.
In addition, it was confirmed that the esterase activity can be measured by using this reaction.

A further series concerns rat brain. As to the kind of experiment: Measurement of ESR-CT image of rat brain after intraperitoneal administration. It counts as in vivo, Wister male rats. Particulars: 6 ml of 150 mM saline solution intraperitoneally, ESR-CT 20 minutes after administration. As for the experimental part: 6 ml of 150 mM physiological saline solution of 1-acetoxy-3-carbamoyl-2,2,5,5-tetramethylpyrrolidine was intraperitoneally administered to Wister male rats (200 g, age: nine weeks) anesthesized with pentobarbital. The head of the rat was secured so that the part of the head 9 mm ahead of the external auditory meatus came to the center of the resonator. ESR-CT was measured 20 minutes after administration. The measuring conditions of ESR-CT were as follows.
(Measurement Conditions of ESR-CT)
Instrument: 700 MHz band electron spin resonance apparatus
Microwave frequency: 720 MHz
Central magnetic field: 25 mT
Magnetic field sweep width: 15 mT
Magnetic field modulation width: 0.2 mT
Magnetic field modulation frequency: 100 kHz
Magnetic field gradient: 1 mT/cm
Magnetic field gradient rotational angle: 20°
The measured black-and-white picture image is shown in FIG. 2, and a color picture image is attached as a reference figure. In FIG. 2, A is a rat brain ESR-CT image 1 mm posterior to the bregma, and B is a rat brain ESR-CT image 3 mm posterior to the bregma. FIG. 3 is a drawing describing the part of the brain indicated by the anatomical chart in FIG. 2.

One may read the melting point as the temperature of the solid-liquid transition. As to `CC(=O)ON1C(C)(C)CC(C(N)=O)C1(C)C` (stereo not drawn) [1-Acetoxy-3-carbamoyl-2,2,5,5-tetramethylpyrrolidine], the melting point lay in the range of 150 to 151 °C. In the series with Esterase, Porcine Liver, the “hydrolysis by esterase (ESR signal strength vs esterase concentration)” value was “hydrolyzed by esterase in a short time and the reaction is quantitative”. In addition, the “transfer to the brain and conversion to nitroxide derivative” value with rat brain was “hydrolyzed after being transferred to the brain, and oxidized by intracerebral active oxygen and free radicals into a nitroxide derivative”.

Consider `CCC(=O)ON1C(C)(C)CC(C(N)=O)C1(C)C` (stereo not drawn) [Example 2, 1-Propionyloxy-3-carbamoyl-2,2,5,5-tetramethylpyrrolidine], for which the melting point was in the range of 116 to 117 °C.

On to `CC1(C)CC(C(N)=O)C(C)(C)N1OC(=O)c1ccccc1` (stereo not drawn) [Example 4, 1-Benzoyloxy-3-carbamoyl-2,2,5,5-tetramethylpyrrolidine], for which the melting point lay in the range of 199 to 201 °C.

In the case of `CC(=O)OC1CC(C)(C)N(OC(C)=O)C(C)(C)C1` [Example 5, 1,4-Diacetoxy-2,2,6,6-tetramethylpiperidine], the melting point fell in the range of 72 to 73 °C.
